Laboratory results from the NIST ThermoML archive (doi:10.1021/je900164a).

Test: xn = mol fraction of the nth substance listed
Details: 101 kPa, Liquid, Vibrating tube method

CCCC[N+](CCCC)(CCCC)CCCC.[Br-] [tetrabutylammonium bromide] + O
Details	mass density [kg/m3]
276.15 K, x1 = 0.0009	1001.35
276.15 K, x1 = 0.0018	1002.75
276.15 K, x1 = 0.00359	1005.6
276.15 K, x1 = 0.00715	1011.37
276.15 K, x1 = 0.01069	1017.09
276.15 K, x1 = 0.01421	1022.49
276.15 K, x1 = 0.0177	1027.72
276.15 K, x1 = 0.02202	1033.53
276.15 K, x1 = 0.02631	1038.46
276.15 K, x1 = 0.03056	1042.53
277.15 K, x1 = 0.0009	1001.35
277.15 K, x1 = 0.0018	1002.73
277.15 K, x1 = 0.00359	1005.52
277.15 K, x1 = 0.00715	1011.23
277.15 K, x1 = 0.01069	1016.88
277.15 K, x1 = 0.01421	1022.16
277.15 K, x1 = 0.0177	1027.3
277.15 K, x1 = 0.02202	1033.01
277.15 K, x1 = 0.02631	1037.94
277.15 K, x1 = 0.03056	1040.98
277.15 K, x1 = 0.03478	1045.39
277.15 K, x1 = 0.0431	1050.63
277.15 K, x1 = 0.05128	1054.86
277.15 K, x1 = 0.07499	1060.81
278.15 K, x1 = 0.0009	1001.32
278.15 K, x1 = 0.0018	1002.69
278.15 K, x1 = 0.00359	1005.47
278.15 K, x1 = 0.00715	1011.09
278.15 K, x1 = 0.01069	1016.66
278.15 K, x1 = 0.01421	1021.91
278.15 K, x1 = 0.0177	1026.96
278.15 K, x1 = 0.02202	1032.57
278.15 K, x1 = 0.02631	1037.41
278.15 K, x1 = 0.03056	1040.41
278.15 K, x1 = 0.03478	1044.76
278.15 K, x1 = 0.0431	1049.93
278.15 K, x1 = 0.05128	1054.13
278.15 K, x1 = 0.07499	1060.07
279.18 K, x1 = 0.0009	1001.28
279.18 K, x1 = 0.0018	1002.65
279.18 K, x1 = 0.00359	1005.39
279.18 K, x1 = 0.00715	1010.96
279.18 K, x1 = 0.01069	1016.45
279.18 K, x1 = 0.01421	1021.63
279.18 K, x1 = 0.0177	1026.61
279.18 K, x1 = 0.02202	1032.11
279.18 K, x1 = 0.02631	1036.89
279.18 K, x1 = 0.03056	1039.82
279.18 K, x1 = 0.03478	1044.11
279.18 K, x1 = 0.0431	1049.24
279.18 K, x1 = 0.05128	1053.4
279.18 K, x1 = 0.07499	1059.33
280.15 K, x1 = 0.0009	1001.23
280.15 K, x1 = 0.0018	1002.58
280.15 K, x1 = 0.00359	1005.29
280.15 K, x1 = 0.00715	1010.78
280.15 K, x1 = 0.01069	1016.22
280.15 K, x1 = 0.01421	1021.32
280.15 K, x1 = 0.0177	1026.22
280.15 K, x1 = 0.02202	1031.62
280.15 K, x1 = 0.02631	1036.32
280.15 K, x1 = 0.03056	1039.11
280.15 K, x1 = 0.03478	1043.44
280.15 K, x1 = 0.0431	1048.51
280.15 K, x1 = 0.05128	1052.65
280.15 K, x1 = 0.07499	1058.55
281.15 K, x1 = 0.0009	1001.16
281.15 K, x1 = 0.0018	1002.49
281.15 K, x1 = 0.00359	1005.18
281.15 K, x1 = 0.00715	1010.61
281.15 K, x1 = 0.01069	1015.98
281.15 K, x1 = 0.01421	1020.99
281.15 K, x1 = 0.0177	1025.83
281.15 K, x1 = 0.02202	1031.18
281.15 K, x1 = 0.02631	1035.8
281.15 K, x1 = 0.03056	1038.63
281.15 K, x1 = 0.03478	1042.82
281.15 K, x1 = 0.0431	1048.23
281.15 K, x1 = 0.05128	1051.94
281.15 K, x1 = 0.07499	1057.83
282.15 K, x1 = 0.0009	1001.09
282.15 K, x1 = 0.0018	1002.4
282.15 K, x1 = 0.00359	1005.07
282.15 K, x1 = 0.00715	1010.44
282.15 K, x1 = 0.01069	1015.72
282.15 K, x1 = 0.01421	1020.68
282.15 K, x1 = 0.0177	1025.44
282.15 K, x1 = 0.02202	1030.69
282.15 K, x1 = 0.02631	1035.23
282.15 K, x1 = 0.03056	1038.05
282.15 K, x1 = 0.03478	1042.16
282.15 K, x1 = 0.0431	1047.12
282.15 K, x1 = 0.05128	1051.21
282.15 K, x1 = 0.07499	1057.05
283.15 K, x1 = 0.0009	1001
283.15 K, x1 = 0.0018	1002.3
283.15 K, x1 = 0.00359	1004.95
283.15 K, x1 = 0.00715	1010.26
283.15 K, x1 = 0.01069	1015.5
283.15 K, x1 = 0.01421	1020.38
283.15 K, x1 = 0.0177	1025.06
283.15 K, x1 = 0.02202	1030.21
283.15 K, x1 = 0.02631	1034.68
283.15 K, x1 = 0.03056	1037.44
283.15 K, x1 = 0.03478	1041.49
283.15 K, x1 = 0.0431	1046.41
283.15 K, x1 = 0.05128	1050.46
283.15 K, x1 = 0.07499	1056.3
288.15 K, x1 = 0.0009	1000.35
288.15 K, x1 = 0.0018	1001.6
288.15 K, x1 = 0.00359	1004.1
288.15 K, x1 = 0.00715	1009.15
288.15 K, x1 = 0.01069	1014.04
288.15 K, x1 = 0.01421	1018.72
288.15 K, x1 = 0.0177	1023.06
288.15 K, x1 = 0.02202	1027.79
288.15 K, x1 = 0.02631	1031.87
288.15 K, x1 = 0.03056	1035.33
288.15 K, x1 = 0.03478	1038.35
288.15 K, x1 = 0.0431	1042.93
288.15 K, x1 = 0.05128	1046.34
293.15 K, x1 = 0.0009	999.405
293.15 K, x1 = 0.0018	1000.6
293.15 K, x1 = 0.00359	1002.98
293.15 K, x1 = 0.00715	1007.76
293.15 K, x1 = 0.01069	1012.37
293.15 K, x1 = 0.01421	1016.75
293.15 K, x1 = 0.0177	1020.77
293.15 K, x1 = 0.02202	1025.18
293.15 K, x1 = 0.02631	1028.99
293.15 K, x1 = 0.03056	1032.22
293.15 K, x1 = 0.03478	1035.02
293.15 K, x1 = 0.0431	1039.41
293.15 K, x1 = 0.05128	1042.74
298.15 K, x1 = 0.0009	998.18
298.15 K, x1 = 0.0018	999.32
298.15 K, x1 = 0.00359	1001.59
298.15 K, x1 = 0.00715	1006.13
298.15 K, x1 = 0.01069	1010.49
298.15 K, x1 = 0.01421	1014.53
298.15 K, x1 = 0.0177	1018.3
298.15 K, x1 = 0.02202	1022.43
298.15 K, x1 = 0.02631	1026
298.15 K, x1 = 0.03056	1029.06
298.15 K, x1 = 0.03478	1031.68
298.15 K, x1 = 0.0431	1035.89
298.15 K, x1 = 0.05128	1039.06
303.15 K, x1 = 0.0009	996.74
303.15 K, x1 = 0.0018	997.82
303.15 K, x1 = 0.00359	999.99
303.15 K, x1 = 0.00715	1004.3
303.15 K, x1 = 0.01069	1008.43
303.15 K, x1 = 0.01421	1012.26
303.15 K, x1 = 0.0177	1015.77
303.15 K, x1 = 0.02202	1019.65
303.15 K, x1 = 0.02631	1022.97
303.15 K, x1 = 0.03056	1025.85
303.15 K, x1 = 0.03478	1028.34
303.15 K, x1 = 0.0431	1032.36
303.15 K, x1 = 0.05128	1035.44
308.15 K, x1 = 0.0009	995.085
308.15 K, x1 = 0.0018	996.14
308.15 K, x1 = 0.00359	998.22
308.15 K, x1 = 0.00715	1002.32
308.15 K, x1 = 0.01069	1006.21
308.15 K, x1 = 0.01421	1009.84
308.15 K, x1 = 0.0177	1013.13
308.15 K, x1 = 0.02202	1016.74
308.15 K, x1 = 0.02631	1019.88
308.15 K, x1 = 0.03056	1022.54
308.15 K, x1 = 0.03478	1024.97
308.15 K, x1 = 0.0431	1028.78
308.15 K, x1 = 0.05128	1031.82
